# Where two headings read alike, the source gives them in different places.
# How the values were obtained:
# [1] = biological target: T1, β-catenin/BCL9 PPI (Homo sapiens, UniProt P35222); experiment: AlphaScreen competitive inhibition assay of β-catenin/BCL9 PPI; type: binding
# T1 construct: Full-length β-catenin (residues 1-781); host or cells: E. coli BL21 DE3
# T1 sequence (P35222 1-781): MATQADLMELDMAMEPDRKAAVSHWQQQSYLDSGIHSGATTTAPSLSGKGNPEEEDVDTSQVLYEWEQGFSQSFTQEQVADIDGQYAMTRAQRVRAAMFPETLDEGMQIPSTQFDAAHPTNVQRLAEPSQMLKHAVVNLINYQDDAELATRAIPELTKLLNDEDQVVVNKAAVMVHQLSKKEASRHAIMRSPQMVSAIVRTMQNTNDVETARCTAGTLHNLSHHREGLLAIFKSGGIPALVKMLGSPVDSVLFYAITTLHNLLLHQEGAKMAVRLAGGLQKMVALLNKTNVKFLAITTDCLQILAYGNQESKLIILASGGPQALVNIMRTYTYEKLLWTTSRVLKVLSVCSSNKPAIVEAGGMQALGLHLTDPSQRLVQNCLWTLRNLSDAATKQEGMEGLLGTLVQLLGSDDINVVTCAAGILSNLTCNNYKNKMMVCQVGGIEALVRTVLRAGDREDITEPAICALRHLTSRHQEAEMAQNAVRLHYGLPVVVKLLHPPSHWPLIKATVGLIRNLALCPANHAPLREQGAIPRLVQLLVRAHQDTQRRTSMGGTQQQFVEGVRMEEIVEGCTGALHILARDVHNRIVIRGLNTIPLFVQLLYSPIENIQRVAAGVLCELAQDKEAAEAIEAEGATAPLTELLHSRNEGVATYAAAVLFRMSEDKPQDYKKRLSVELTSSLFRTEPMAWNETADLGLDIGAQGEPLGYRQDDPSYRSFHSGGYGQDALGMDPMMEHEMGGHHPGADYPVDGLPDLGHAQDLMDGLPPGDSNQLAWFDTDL
# Protocol: AlphaScreen Assays of β-Catenin and BCL9 Interaction. Experiments were performed in white opaque 384-well plates from PerkinElmer (Waltham, MA), and the samples were read on a Biotek Synergy 2 plate reader (Winooski, VT) with excitation at 680 nm and emission at 570 nm. The standard AlphaScreen protocol was used with a sensitivity setting of 200. All dilutions were made in 1x assay buffer containing 25 mM Hepes (pH 7.4), 100 mM NaCl, 0.01% Triton X-100 and 0.1% BSA to minimize nonspecific interactions.
# For the β-catenin/BCL9 assay, 5 nM biotinylated BCL9, and 50 nM His6-tagged 8-catenin were incubated in assay buffer for 30 min. Different concentrations of the tested inhibitor were added and incubated in 20 μL assay buffer for another 1 h. All of the assay plates were covered and gently mixed on an orbital shaker. Donor and acceptor beads were then added to the plates to a final concentration of 10 μg/mL in 25 μL assay buffer. The mixture was incubated for 1 h before detection. The IC50 value was determined by nonlinear least-square analysis of GraphPad Prism 8.0. […] All of the experiments were performed in triplicate and carried out in the presence of 1% DMSO for small-molecule inhibitors. Each compound was assayed at least by three independent experiments. The results were expressed as mean±standard deviation.
# [2] = test system: β-catenin/BCL9 PPI; experiment: Co-immunoprecipitation in HCT116 cells, β-catenin/BCL9; type: cell-based; settings: 24 h, full-length proteins
# Protocol: C0-Immunoprecipitation (C0-IP) Experiments. HCT116 cancer cells with hyperactive 8-catenin signaling at 1×10^6 cells/mL were treated with different concentrations of the inhibitor for 24 h. Cells were then lysed in buffer containing 50 mM Tris, pH 7.4, 150 mM NaCl, 1% Nonidet P-40, 2 mM EDTA, and protease inhibitors. The cell lysates were pre-adsorbed to A/G plus agarose (sc-2003, Santa Cruz Biotechnology) at 4° C. for 1 h. Pre-adsorbed lysates were incubated with a specific primary antibody against β-catenin (610153, BD Biosciences) overnight at 4° C. A/G plus agarose was then added to the lysate mixture and incubated for 3 h. The beads were washed four times with the lysis buffer at 4° C. The bound protein was eluted by boiling in the SDS sample buffer and loaded onto 8% SDS polyacrylamide gel for electrophoretic analysis. Separated proteins were transferred onto nitrocellulose membranes for immunoblot analysis. The antibodies against BCL9 (ab37305, Abcam) and E-cadherin (610404, BD Biosciences), were incubated with the membranes, respectively. IRDye 680LT goat anti mouse IgG (827-11080, LiCOR) and IRDye 800CW goat anti rabbit IgG (926-32211, LiCOR) were used as the secondary antibodies. The images were detected by the Odyssey Infrared Imaging System (LiCOR). Experiments were performed in triplicate.
# [3] = test system: Axin2 and cyclin D1 protein expression; experiment: Western blot of Wnt target genes in SW480 cells; type: cell-based; settings: 24 h
# Protocol: Western Blotting of Wnt Target Genes. SW480 cells at 1×10^6 cells/mL were treated with different concentrations of inhibitors for 24 h. Cells were lysed in buffer containing 50 mM Tris, pH 7.4, 150 mM NaCl, 1% Nonidet P-40, 2 mM EDTA, and protease inhibitors. After centrifugation at 12,000 rpm for 20 min at 4° C., the supernatant was loaded onto an 8% SDS polyacrylamide gel for electrophoretic analysis. Separated proteins were transferred onto nitrocellulose membranes for immunoblot analysis. The antibodies against Axin2 (MA5-15015, Thermo Fisher), cyclin D1 (sc-853, Santa Cruz Biotechnology), and β-tubulin (sc-55529, Santa Cruz Biotechnology) were incubated with the membranes overnight at 4° C., respectively. IRDye 680LT goat anti-mouse IgG (827-11080, LiCOR) or IRDye 800CW goat anti-rabbit IgG (827-08365, LiCOR) was used as the secondary antibody. The images were detected by the Odyssey Infrared Imaging System (Odyssey Fc, LiCOR). Experiments were performed in duplicate.
compound,measurement,setting,value
"CC(C)(Oc1cccc(N2CCC[C@H](C(=O)N(Cc3ccc(-c4cccs4)cc3)C3CC3)C2)c1)C(=O)NS(=O)(=O)c1ccc(C#N)cc1 [Compound 30, (S)-((4-Cyanophenyl)sulfonyl) (2-(3-(3-(cyclopropyl(4-(thiophen-2-yl)benzyl)carbamoyl)piperidin-1-yl)phenoxy)-2-methylpropanoyl)amide]",Ki,"[1]; AlphaScreen competitive inhibition assay, read-out: Ki for disruption of the β-catenin/BCL9 PPI",3.6 µM
same,AlphaScreen inhibitory activity in words,[1]; SAR comparison,slightly superior to R-isomer
same,IC50,"[1]; Table 2, AlphaScreen, inhibitors 27-30 (R- and S-isomers), preliminary",≤ 5 µM
same,Ki,"[1]; Table 2, AlphaScreen, inhibitors 27-30 (R- and S-isomers), preliminary, read-out: Ki",≤ 5 µM
same,disruption of β-catenin/BCL9 PPI in cells (co-IP),[2],disrupted the β-catenin/BCL9 PPI in a dose-dependent manner
same,protein expression levels of Axin2 and cyclin D1 (Western blot),[3],dose-dependently decreased

# Reference: patent US20250019371A1, “SMALL-MOLECULAR INHIBITORS FOR THE BETA-CATENIN/ B-CELL LYMPHOMA 9 PROTEIN-PROTEIN INTERACTION” (H. LEE MOFFITT CANCER CENTER AND RESEARCH INSTITUTE, INC., priority 2021, published 2025)
